According to patent US20050164924A1, “Method and composition for treating skin wounds with epidermal growth factor” (priority 2002, published 2005):
Where “and” joins values, the source holds several entries; their conditions need not be identical. Identical values can stand only once.

Assays:
[1] = system: diabetes ulcers; assay: Individuals suffering from prolonged diabetes ulcers treated with 0.04% hEGF composition; assay type: in vivo, human; conditions: 0.04% (g/g) hEGF
Protocol: Three patients suffering from prolonged diabetes ulcers were treated with the composition of this invention containing 0.04% (g/g) hEGF. The following results were observed, with all of the patients were healed after as short as four weeks treatment: […]

[2] = system: diabetic foot ulcer; assay: Randomized double-blind controlled trial of hEGF in diabetic foot ulcer healing; assay type: in vivo, human; conditions: for 100% Healed Time, mean survival time: Kaplan Meier; for healing rate by the end of 12 weeks: topical daily
Protocol: A randomized double-blind controlled trial was conducted to study the efficacy of human epidermal growth factor hEGF) in promoting diabetic foot ulcer healing with 88 patients. Predetermined criteria were used for patient selection, they were; ulcer grade 1-2, ulcer located below the ankle, adequate perfusion as indicated by an ankle brachial-index of ≧0.7. Patients were excluded if: sugar control was very poor (HbAlc≧12%), or had severe grade ulcers (≧3). Initial assessment and standard wound care and debridement was given as in an ordinary diabetic foot clinic. The patients were reviewed two weeks later. In the second consultation, patients whose ulcer healed more than 25% with conventional foot ulcer care were excluded. Informed consent was obtained from the remaining patients and randomization was done by drawing envelopes, although the patients were blind to the concentrations of hEGF during the experiments. The final candidates were randomly assigned into three groups: • 1. Group 1 were treated with Acetovegin® 5% cream alone, which has the following compositions as indicated in the package of the cream: 1 g of cream contains 2 mg (corresponding to dry mass) of deproteinized hemoderivative of calf blood, and 0.2 mg of benzalkonium chloride. There was no particular reason in choosing Acetovegin® 5% cream as the control other than this cream was available at the clinic where the experiments were conducted. • 2. Group 2 patients were treated with Acetovegin® 5% cream (with composition as stated above) plus 0.02% (g/g) hEGF. • 3. Group 3 patients were treated with Acetovegin® 5% cream (with composition as stated above) plus 0.04% (g/g) hEGF. All patients were followed up on a biweekly bass for wound care and debridement and trimming of keratosis. Antibiotic would be given if it was infected as indicated by purulent discharge or by positive bacterial culture. Photos of the wound's size were being taken for computer measurement and comparing with a reference area having a known size. Local application of study cream was applied and covered with sterile gauze. Patients were instructed to have daily normal saline dressing and local application of cream in the government out-patient-clinic or community nurse would be asked to have home visit for those with ambulatory problem. Wound parameters, such as exudates sign of infection granulation tissue and eschar were documented in each visit and complete healing was defined as full epithelialization of the wound with absence of discharge. Analysis was based on intention to treat and Kaplan Meier survival analysis was employed to compare the healing rate between different groups. One way ANOVA was used for clinical parameters analysis. If more than one wound was present in one patient the total areas of the ulcers was taken together and treated as one single wound. Of the 30 patients that suffered from unhealed ulcers they were randomly assigned into 3 groups as stated above: Group-1 (9/30), the control, was treated with Acetovegin® 5% cream alone; Group-2 (9/30) was treated with Acetovegin® 5% cream plus 0.02% (g/g) hEGF; Group-3, (14/32) Acetovegin® 5% cream plus 0.04% (g/g) hEGF. The end point of a treatment was defined as complete closure of the wound, whereas failure to heal was defined as incomplete healing after 12 weeks of treatment. The experiment in Example 1 was repeated using Acetovegin® 5% cream plus 0.03% (g/g) hEGF. 8 patients, named Group-4, were treated.

[3] = system: corneal and burn wounds; conditions: EGF 10 μg/ml; cited from earlier work
[4] = system: burns; assay: Treating burns with EGF; assay type: in vivo; conditions: 0.001% (g) of EGF
[5] = system: bedsore; assay: Individual suffering from bedsore; assay type: in vivo, human; conditions: 0.04% (g/g) EGF daily with normal saline dressing, after three-month treatment
Protocol: Patient B was bedridden at aged home for several years. […] They were referred to medical because the wound got worse with central grangrene after a two-month treatment.
They were then treated with Hibitane dressing for two weeks then normal saline dressing with the composition of this invention containing 0.04% (g/g) EGF daily.

[6] = system: right facial non-healing ulcer; assay: Individual suffering from prolonged unhealed surgical wound; assay type: in vivo, human; conditions: Patient D
From the text: Patient D was admitted for investigation of right facial non-healing ulcer after extraction of right mandibular molars and excision of facial fistula eleven months ago. […] There was sloughing of the right mandibular alveolus and the wound was tender. […] However, “definitively negative finding for malignancy nor basal cell carcinoma, quite normal looking oral epithelial mucosa” was reported by a pathologist. […] Patient was reviewed after two weeks of hEGF (0.04% (g/g)) local application. The composition is the same as that used in the above Group-3 patients. The right facial wound was healing, base of the wound looked fleshy with no discharge. The wound area decreased in size by about 30%.

[7] = system: venous stasis ulcers; conditions: EGF 10 μg/ml; cited from earlier work
[8] = Patient A, after 2 weeks treatment
[9] = Patient A, after 3 weeks treatment
[10] = Patient B, after 3 weeks treatment
[11] = Patient B, after 5 weeks treatment
[12] = Patient B, after 9 weeks treatment
[13] = Patient C, after 4 weeks treatment
[14] = Patient C, after 6 weeks treatment

human epidermal growth factor [hEGF]
Healing Rate [1, 8]: 36.25% | Ulcer Area [1, 8]: 1.02 cm^2 | Healing Rate [1, 9]: 100% | Ulcer Area [1, 9]: 0 cm^2 | Healing Rate [1, 10]: 43.18% | Ulcer Area [1, 10]: 3.79 cm^2 | Healing Rate [1, 11]: 75.71% | Ulcer Area [1, 11]: 1.62 cm^2 | Healing Rate [1, 12]: 97.60% | Ulcer Area [1, 12]: 0.16 cm^2 | Healing Rate [1, 13]: 89.34% | Ulcer Area [1, 13]: 1.41 cm^2 | Healing Rate [1, 14]: 100% | Ulcer Area [1, 14]: 0 cm^2 | total healing outcome ([2]; 0.02% (g/g) EGF): may fail to achieve totally healing in some cases | reduction of the time required to achieve 50% healing ([2]; 0.02% (g/g) or 0.04% (g/g) EGF): 2-4 weeks | results compared with 0.04% (g/g) EGF ([2]; 0.03% (g/g) EGF): almost indistinguishable | total healing outcome ([2]; 0.04% (g/g) EGF): all of the patients were totally healed after 12 wee | 50% Healed Time, mean survival time ([2]; Group-2, 0.02% (g/g) hEGF): 5.71±1.02 weeks and 5.71 weeks | 50% Healed Time, median survival time ([2]; Group-2, 0.02% (g/g) hEGF): 6.00 weeks | 100% Healed Time, mean survival time ([2]; Group-2, 0.02% (g/g) hEGF): 9.43±1.38 weeks and 9.43 weeks | 100% Healed Time, median survival time ([2]; Group-2, 0.02% (g/g) hEGF, limited to 12 weeks): 12.00 weeks | healing rate by the end of 12 weeks ([2]; Group-2: Acetovegin 5% cream plus 0.02% (g/g) hEGF): 55% | 50% Healed Time, mean survival time ([2]; Group-3, 0.04% (g/g) hEGF): 4.50±0.82 weeks and 4.50 weeks | 50% Healed Time, median survival time ([2]; Group-3, 0.04% (g/g) hEGF): 4.00 weeks | 100% Healed Time, median survival time ([2]; Group-3, 0.04% (g/g) hEGF): 6.00 weeks | 100% Healed Time, mean survival time ([2]; Group-3, 0.04% (g/g) hEGF): 6.67 weeks | healing rate by the end of 12 weeks ([2]; Group-3: Acetovegin 5% cream plus 0.04% (g/g) hEGF): 100% | 100% healing time, median survival time ([2]; Group-4, 0.03% (g/g) hEGF): 6 weeks | Cumulative Survival (unhealed fraction) ([2]; Group-4, 0.03% (g/g) hEGF, 2 weeks): 0.8750 | Cumulative Survival (unhealed fraction) ([2]; Group-4, 0.03% (g/g) hEGF, 4 weeks): 0.6250 | Cumulative Survival (unhealed fraction) ([2]; Group-4, 0.03% (g/g) hEGF, 6 weeks): 0.5000 | Cumulative Survival (unhealed fraction) ([2]; Group-4, 0.03% (g/g) hEGF, 8 weeks): 0.3750 | Cumulative Survival (unhealed fraction) ([2]; Group-4, 0.03% (g/g) hEGF, 10 weeks): 0.2500 | Cumulative Survival (unhealed fraction) ([2]; Group-4, 0.03% (g/g) hEGF, 12 weeks): 0.1250 | 100% healing time, mean survival time (limited to 12) ([2]; Group-4, Acetovegin 5% cream plus 0.03% (g/g) hEGF): 7 weeks | healing of corneal and burn wounds [3]: promote healing | effect on wound healing of burns [4]: effective in accelerating wound healing | wound outcome [5]: healed and completely closed | decrease of wound area in size ([6]; 0.04% (g/g) hEGF local application, after two weeks): about 30% | reduction of wound in size ([6]; 0.04% hEGF applied locally, after 5 weeks): approximately 50% | epithelization in wounds of patients with venous stasis ulcers [7]: failed to promote epithelization
